Experimental data: PubChem BioAssay (NCI)
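In this assay, cells in 96-well plates receive the compound at five concentrations for 48 hours. Endpoints are linearly interpolated between the surrounding concentrations. At the GI50, growth is halved. TGI is the concentration that stops growth completely.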

What was measured:
Test in all cases: NCI tumour cell line growth inhibition, 48 h
IGROV1 ovarian = tested on: IGROV1 ovarian
SNB-19 CNS = tested on: SNB-19 CNS
SNB-75 CNS = tested on: SNB-75 CNS
T-47D breast = tested on: T-47D breast
SF-295 CNS = tested on: SF-295 CNS
MALME-3M melanoma = tested on: MALME-3M melanoma
SK-OV-3 ovarian = tested on: SK-OV-3 ovarian
RPMI-8226 leukemia = tested on: RPMI-8226 leukemia
M14 melanoma = tested on: M14 melanoma
SF-268 CNS = tested on: SF-268 CNS
KM12 colon = tested on: KM12 colon
RXF 393 renal = tested on: RXF 393 renal
NCI-H226 lung = tested on: NCI-H226 lung
HCC-2998 colon = tested on: HCC-2998 colon
HT29 colon = tested on: HT29 colon
NCI-H460 lung = tested on: NCI-H460 lung
NCI-H23 lung = tested on: NCI-H23 lung
786-0 renal = tested on: 786-0 renal
SW-620 colon = tested on: SW-620 colon
HOP-92 NSCLC = tested on: HOP-92 NSCLC
UACC-62 melanoma = tested on: UACC-62 melanoma
OVCAR-3 ovarian = tested on: OVCAR-3 ovarian
SK-MEL-2 melanoma = tested on: SK-MEL-2 melanoma
HL-60(TB) leukemia = tested on: HL-60(TB) leukemia
MCF7 breast = tested on: MCF7 breast
UACC-257 melanoma = tested on: UACC-257 melanoma
SK-MEL-28 melanoma = tested on: SK-MEL-28 melanoma
MDA-MB-231 breast = tested on: MDA-MB-231 breast
SN12C renal = tested on: SN12C renal
MDA-MB-435 = tested on: MDA-MB-435
A549 NSCLC = tested on: A549 NSCLC
CCRF-CEM leukemia = tested on: CCRF-CEM leukemia
OVCAR-4 ovarian = tested on: OVCAR-4 ovarian
OVCAR-8 ovarian = tested on: OVCAR-8 ovarian
ACHN renal = tested on: ACHN renal
SR leukemia = tested on: SR leukemia
SF-539 CNS = tested on: SF-539 CNS
K-562 leukemia = tested on: K-562 leukemia
BT-549 breast = tested on: BT-549 breast
OVCAR-5 ovarian = tested on: OVCAR-5 ovarian
PC-3 prostate = tested on: PC-3 prostate
HS 578T breast = tested on: HS 578T breast
CAKI-1 renal = tested on: CAKI-1 renal
MOLT-4 leukemia = tested on: MOLT-4 leukemia
U251 CNS = tested on: U251 CNS
NCI/ADR-RES ovarian = tested on: NCI/ADR-RES ovarian
DU-145 prostate = tested on: DU-145 prostate
COLO 205 colon = tested on: COLO 205 colon
HOP-62 NSCLC = tested on: HOP-62 NSCLC
NCI-H522 lung = tested on: NCI-H522 lung
UO-31 renal = tested on: UO-31 renal
HCT-116 colon = tested on: HCT-116 colon
A498 renal = tested on: A498 renal
LOX IMVI melanoma = tested on: LOX IMVI melanoma
SK-MEL-5 melanoma = tested on: SK-MEL-5 melanoma
TK-10 renal = tested on: TK-10 renal
EKVX NSCLC = tested on: EKVX NSCLC
HCT-15 colon = tested on: HCT-15 colon

Compound: CCn1cc(C2NC(=O)c3ccccc3N2)c2cccc(C)c21 (stereo not given)
- GI50 (IGROV1 ovarian): 473 nM
- TGI (IGROV1 ovarian): > 100000 nM
- GI50 (SNB-19 CNS): 456 nM
- TGI (SNB-19 CNS): > 100000 nM
- GI50 (SNB-75 CNS): 184 nM
- TGI (SNB-75 CNS): 829 nM
- GI50 (T-47D breast): 556 nM
- TGI (T-47D breast): > 100000 nM
- GI50 (SF-295 CNS): 293 nM
- GI50 (MALME-3M melanoma): 449 nM
- TGI (MALME-3M melanoma): > 100000 nM
- GI50 (SK-OV-3 ovarian): 522 nM
- TGI (SK-OV-3 ovarian): > 86100 nM
- GI50 (RPMI-8226 leukemia): 381 nM
- TGI (RPMI-8226 leukemia): > 100000 nM
- GI50 (M14 melanoma): 298 nM
- TGI (M14 melanoma): > 100000 nM
- GI50 (SF-268 CNS): 1360 nM
- TGI (SF-268 CNS): > 68000 nM
- GI50 (KM12 colon): 389 nM
- TGI (KM12 colon): 22200 nM
- GI50 (RXF 393 renal): 199 nM
- TGI (RXF 393 renal): 658 nM
- GI50 (NCI-H226 lung): 572 nM
- TGI (NCI-H226 lung): 13200 nM
- GI50 (HCC-2998 colon): 1080 nM
- TGI (HCC-2998 colon): 8220 nM
- GI50 (HT29 colon): 331 nM
- TGI (HT29 colon): 4290 nM
- GI50 (NCI-H460 lung): 346 nM
- TGI (NCI-H460 lung): 1460 nM
- GI50 (NCI-H23 lung): 844 nM
- TGI (NCI-H23 lung): > 100000 nM
- GI50 (786-0 renal): 539 nM
- TGI (786-0 renal): 22300 nM
- GI50 (SW-620 colon): 337 nM
- TGI (SW-620 colon): > 100000 nM
- GI50 (HOP-92 NSCLC): 4790 nM
- TGI (HOP-92 NSCLC): > 78700 nM
- GI50 (UACC-62 melanoma): 311 nM
- TGI (UACC-62 melanoma): > 100000 nM
- GI50 (OVCAR-3 ovarian): 275 nM
- TGI (OVCAR-3 ovarian): 1020 nM
- GI50 (SK-MEL-2 melanoma): 631 nM
- TGI (SK-MEL-2 melanoma): > 100000 nM
- GI50 (HL-60(TB) leukemia): 310 nM
- TGI (HL-60(TB) leukemia): 1060 nM
- GI50 (MCF7 breast): 298 nM
- TGI (MCF7 breast): > 100000 nM
- GI50 (UACC-257 melanoma): 60000 nM
- TGI (UACC-257 melanoma): > 100000 nM
- GI50 (SK-MEL-28 melanoma): 2040 nM
- TGI (SK-MEL-28 melanoma): > 100000 nM
- GI50 (MDA-MB-231 breast): 991 nM
- TGI (MDA-MB-231 breast): 12000 nM
- GI50 (SN12C renal): 579 nM
- TGI (SN12C renal): 17000 nM
- GI50 (MDA-MB-435): 142 nM
- TGI (MDA-MB-435): 357 nM
- GI50 (A549 NSCLC): 653 nM
- TGI (A549 NSCLC): 14700 nM
- GI50 (CCRF-CEM leukemia): 324 nM
- TGI (CCRF-CEM leukemia): 96900 nM
- GI50 (OVCAR-4 ovarian): 1490 nM
- TGI (OVCAR-4 ovarian): 13100 nM
- GI50 (OVCAR-8 ovarian): 617 nM
- TGI (OVCAR-8 ovarian): 22600 nM
- GI50 (ACHN renal): 685 nM
- TGI (ACHN renal): 23100 nM
- GI50 (SR leukemia): 261 nM
- TGI (SR leukemia): > 100000 nM
- GI50 (SF-539 CNS): 275 nM
- TGI (SF-539 CNS): 1340 nM
- GI50 (K-562 leukemia): 224 nM
- TGI (K-562 leukemia): > 100000 nM
- GI50 (BT-549 breast): 901 nM
- TGI (BT-549 breast): 17600 nM
- GI50 (OVCAR-5 ovarian): 915 nM
- TGI (OVCAR-5 ovarian): > 91600 nM
- GI50 (PC-3 prostate): 443 nM
- TGI (PC-3 prostate): > 100000 nM
- GI50 (HS 578T breast): 255 nM
- TGI (HS 578T breast): 1950 nM
- GI50 (CAKI-1 renal): 289 nM
- TGI (CAKI-1 renal): 20400 nM
- GI50 (MOLT-4 leukemia): 531 nM
- TGI (MOLT-4 leukemia): > 100000 nM
- GI50 (U251 CNS): 456 nM
- TGI (U251 CNS): 13900 nM
- GI50 (NCI/ADR-RES ovarian): 319 nM
- TGI (NCI/ADR-RES ovarian): 4570 nM
- GI50 (DU-145 prostate): 430 nM
- TGI (DU-145 prostate): 27900 nM
- GI50 (COLO 205 colon): 485 nM
- TGI (COLO 205 colon): 9880 nM
- GI50 (HOP-62 NSCLC): 517 nM
- TGI (HOP-62 NSCLC): 34200 nM
- GI50 (NCI-H522 lung): 265 nM
- TGI (NCI-H522 lung): 17600 nM
- GI50 (UO-31 renal): 631 nM
- TGI (UO-31 renal): 16400 nM
- GI50 (HCT-116 colon): 409 nM
- TGI (HCT-116 colon): 11500 nM
- GI50 (A498 renal): 172 nM
- TGI (A498 renal): 947 nM
- GI50 (LOX IMVI melanoma): 571 nM
- TGI (LOX IMVI melanoma): 13700 nM
- GI50 (SK-MEL-5 melanoma): 338 nM
- TGI (SK-MEL-5 melanoma): 5870 nM
- GI50 (TK-10 renal): 3000 nM
- TGI (TK-10 renal): > 40900 nM
- GI50 (EKVX NSCLC): 621 nM
- TGI (EKVX NSCLC): > 100000 nM
- GI50 (HCT-15 colon): 360 nM
- TGI (HCT-15 colon): 24500 nM
